PMC11768591 (Pharmaceutics, 2024)
Converted amounts (≈) assume the structure as drawn.

Experiments:
[1] = test system: carrageenan-induced thermal hyperalgesia; test: Carrageenan-induced thermal hyperalgesia, paw withdrawal latency; assay type: in vivo, Male Wistar rats; details: rat, single oral dose 100 mg/kg
Description: (§1) CFA was administered at a concentration of 1 mg/mL and was previously dissolved in a mixture of paraffin oil (85%) and mannard monooleate (15%), whereas carrageenan was dissolved in an isotonic saline solution at 1%. The drugs were prepared fresh at the desired dose before administration.
(§2) The antihyperalgesic effect of the co-amorphous compound was evaluated using the thermal hyperalgesia model described by Dirig et al., with slight modifications. In this model, the rats were placed in acrylic observation chambers on a thin transparent glass plate maintained at a constant temperature of 30 °C. After a 30 min acclimatization period in the chambers, the animals received an intra-articular injection of 100 µL of CFA (1 mg/mL) or an intra-plantar injection of 50 µL of 1% carrageenan. Paw withdrawal latency to the thermal stimulus was measured before and 1, 2, 3, 4, 5 and 6 h after injection of CFA or carrageenan. To avoid tissue damage, a cutoff time of 20 s was used.
(§3) In the preclinic studies, data were expressed as the average ± S.E.M. of 6 animals per experimental group. […] From the time courses, the area under the curve (AUC) was calculated using the trapezoidal rule as a measure of the duration and intensity of the effects observed with the different treatments. […]

[2] = test system: CFA-induced thermal hyperalgesia; test: CFA-induced thermal hyperalgesia, paw withdrawal latency; assay type: in vivo, Male Wistar rats; details: rat, single oral dose 100 mg/kg
Description: as §1, §2, §3

[3] = test system: inflammation induced by Freund's complete adjuvant; test: CFA-induced inflammation, paw volume by plethysmometer; assay type: in vivo, Male Wistar rats; details: rat
Description: (§4) The drugs were prepared fresh at the desired dose before administration. […] In the CFA-induced inflammation model, the rats were briefly anesthetized with isoflurane, via nose cone, titrated to the lowest dose necessary to achieve non-response to distal tail pinch. […] In both models, the paw volume was measured by a digital plethysmometer 7150 (Ugo Basile, Varese, Italy). To measure volume, the injected paw was marked around 1 cm above the tibiotarsal joint with an indelible pen. The paw was immersed up to the mark every time. […] In the […] studies, data were expressed as the average ± S.E.M. of 6 animals per experimental group. For the inflammation and hyperalgesia experiments, time courses of volume change (ΔV in μL) versus time (h) or paw withdrawal latency time (s) versus time (h) were generated, respectively. From the time courses, the area under the curve (AUC) was calculated using the trapezoidal rule as a measure of the duration and intensity of the effects observed with the different treatments. Then, AUC was employed to construct dose-response curves and to compare the different treatments.

[4] = Solubility in phosphate buffer pH 6.8 at 37.5 °C (supersaturated, UV/Vis 420 nm); assay type: physicochemical
Description: (§5) Then, 200 µL aliquots were taken for 1, 5, 10, 30 and 60 min. […] The solubility tests were performed in triplicate.

[5] = Solubility in distilled water at 37.5 °C (supersaturated, UV/Vis 420 nm); assay type: physicochemical
Description: as §5

[6] = phosphate buffer at pH 7.2; cited from earlier work
[7] = test system: inflammation induced by carrageenan; test: Carrageenan-induced inflammation, paw volume by plethysmometer; assay type: in vivo, Male Wistar rats; details: rat
Description: as §4

[8] = oral 100–320 mg/kg, 1 h before CFA
[9] = oral 100–320 mg/kg, 1 h before carrageenan
[10] = single oral dose 100 mg/kg (mixture: curcumin 51.4 mg/kg + L-arginine 48.6 mg/kg)

SMILES | antihyperalgesic effect, carrageenan-induced thermal hyperalgesia (paw withdrawal latency) [1] | antihyperalgesic effect, CFA-induced thermal hyperalgesia (paw withdrawal latency) [2] | effect on CFA-induced inflammation (paw volume change, AUC) [3, 8] | solubility at 60 min ([4]; pH 6.8, after 60 min) | solubility at 1 min ([4]; pH 6.8, aqueous buffer, thermodynamic from solid, after 1 min) | solubility in distilled water ([5]; after 60 min) | solubility at 1 min ([5]; distilled water, water, thermodynamic from solid, after 1 min) | half-life in solution [6] | effect on carrageenan-induced inflammation (paw volume change, AUC) [7, 9] | effect on CFA-induced inflammation (paw volume change, AUC) [3, 10] | effect on carrageenan-induced inflammation (paw volume change, AUC) [7, 10]
COc1cc(/C=C/C(=O)CC(=O)/C=C/c2ccc(O)c(OC)c2)ccc1O [curcumin] | antinociceptive effects that were statistically different from the vehicle group | not curcumin or L-arginine, significantly increased the latency time | failed to reverse the inflammatory effects | 3.75 µg/mL (≈ 10.2 µM) | 1.36 µg/mL (≈ 3.69 µM) | 0.43 µg/mL (≈ 1.17 µM) | 0.03 µg/mL (≈ 0.0814 µM) | around 10 min | failed to reverse the inflammatory effects |  | 
O=C(O)Cc1ccccc1Nc1c(Cl)cccc1Cl [diclofenac] |  |  |  |  |  |  |  |  |  | have anti-inflammatory effects | have anti-inflammatory effects
N=C(N)NCCC[C@H](N)C(=O)O [L-arginine] | antinociceptive effects that were statistically different from the vehicle group | not curcumin or L-arginine, significantly increased the latency time | failed to reverse the inflammatory effects |  |  |  |  |  | failed to reverse the inflammatory effects |  | 
